{"source": "patent EP4570805A1", "about": "“TRICYCLIC COMPOUNDS AND MEDICAL USE THEREOF” (Chia Tai Tianqing Pharmaceutical Group Co., Ltd., priority 2022, dated 2024)", "data": [{"system": "Capan-1 cells", "experiment": "Inhibitory activity for Capan-1 cell proliferation (CCK-8)", "type": "cell-based", "conditions": "5 days incubation", "procedure": "(§1) Capan-1 cells in a well-growing state were collected into a centrifuge tube, adjusted to a cell density of 1.5 × 10^4 cells/mL, and inoculated onto a 96-well plate (100 µL/well). […] Meanwhile, a control was set. After 5 days of incubation in the cell incubator, the assay reagent CCK-8 (manufacturer: Dojindo Laboratories, Beijing; 10 µL/well) was added. After 4 h of incubation in the cell incubator, the absorbance was measured at 450 nm on a PerkinElmer Envision microplate reader. A four-parameter analysis was performed, a dose-response curve was fitted, and IC50 was calculated.", "units": {"IC50": "nM"}, "values": [{"smiles": "C#Cc1c(F)ccc2cccc(-c3nc4c5c(nc(OC[C@@H]6CCCN6C)nc5c3F)N(C(C)c3cccnc3N)[C@@H](C)CO4)c12", "note": "(single isomer, unassigned) [Example 88]", "IC50": "< 100"}, {"smiles": "C#Cc1c(F)ccc2cc(O)cc(-c3nc4c5c(nc(OCC6(CN7CCOCC7)CC6)nc5c3F)N(C(C)c3cccnc3N)[C@@H](C)CO4)c12", "note": "(single isomer, unassigned) [Example 70]", "IC50": "< 100"}, {"smiles": "C#Cc1c(F)ccc2cccc(-c3nc4c5c(nc(OCC67CCCN6CC(F)C7)nc5c3F)N(C(C)c3cccnc3N)C(C)CO4)c12", "note": "(single isomer, unassigned) [Example 48]", "IC50": "< 100"}, {"smiles": "CC(c1cccnc1N)N1c2nc(OC[C@@]34CCCN3C[C@H](F)C4)nc3c(F)c(-c4cc(N)cc(Cl)c4C(F)(F)F)nc(c23)OC[C@@H]1C", "note": "(single isomer, unassigned) [Example 64]", "IC50": "< 100"}, {"smiles": "C#Cc1c(F)ccc2cc(O)cc(-c3nc4c5c(nc(OC[C@@H]6C[C@@H](F)CN6C)nc5c3F)N(C(C)c3cccnc3N)[C@@H](C)CO4)c12", "note": "(single isomer, unassigned) [Example 147]", "IC50": "< 100"}, {"smiles": "[2H]C([2H])(Oc1nc2c3c(nc(-c4cc(O)cc5ccc(F)c(C#C)c45)c(F)c3n1)OC[C@H](C)N2C(C)c1cccnc1N)[C@@]12CCCN1C[C@H](F)C2", "note": "(single isomer, unassigned) [Example 72]", "IC50": "< 100"}, {"smiles": "C#Cc1cccc2cccc(-c3nc4c5c(nc(OC[C@@]67CCCN6C[C@H](F)C7)nc5c3F)N(C(C)c3cccnc3N)[C@@H](C)CO4)c12", "note": "(single isomer, unassigned) [Example 131]", "IC50": "< 100"}, {"smiles": "C#Cc1c(F)ccc2cc(O)cc(-c3nc4c5c(nc(OC[C@@H]6COCCN6C)nc5c3F)N(C(C)c3cccnc3N)[C@@H](C)CO4)c12", "note": "(single isomer, unassigned) [Example 92]", "IC50": "< 100"}]}, {"system": "Capan-1 cells", "experiment": "Inhibitory activity for Capan-1 cell proliferation (CCK-8)", "type": "cell-based", "conditions": "Homo sapiens, CAPAN-1, 120 h, 5 days incubation", "procedure": "as §1", "units": {"IC50": "nM"}, "values": [{"smiles": "C#Cc1c(F)ccc2cc(O)cc(-c3nc4c5c(nc(OC[C@@H]6CN(C)CCN6C)nc5c3F)N(C(C)c3cccnc3N)[C@@H](C)CO4)c12", "note": "(single isomer, unassigned) [Example 109]", "IC50": "< 100"}, {"smiles": "C#Cc1c(F)ccc2cc(O)cc(-c3nc4c5c(nc(OCC(C)CN(C)C)nc5c3F)N(C(C)c3cccnc3N)[C@@H](C)CO4)c12", "note": "(single isomer, unassigned) [Example 144]", "IC50": "< 100"}, {"smiles": "C#Cc1c(F)ccc2cc(O)cc(-c3nc4c5c(nc(OC[C@H](C)OC)nc5c3F)N(C(C)c3cccnc3N)[C@@H](C)CO4)c12", "note": "(single isomer, unassigned) [Example 73]", "IC50": "< 100"}, {"smiles": "C#Cc1c(F)ccc2cc(O)cc(-c3nc4c5c(nc(OCCN6CCOCC6)nc5c3F)N(C(C)c3cccnc3N)[C@@H](C)CO4)c12", "note": "(single isomer, unassigned) [Example 136]", "IC50": "< 100"}, {"smiles": "Cc1cccc(-c2nc3c4c(nc(OC[C@@H]5CCCN5C)nc4c2F)N(C(C)c2cccnc2N)[C@@H](C)CO3)c1C(F)(F)F", "note": "(single isomer, unassigned) [Example 160]", "IC50": "< 100"}, {"smiles": "C#Cc1c(F)ccc2cc(O)cc(-c3nc4c5c(nc(OCCCN6CCOCC6)nc5c3F)N(C(C)c3cccnc3N)[C@@H](C)CO4)c12", "note": "(single isomer, unassigned) [Example 154]", "IC50": "< 100"}, {"smiles": "CC(c1cccnc1N)N1c2nc(OC[C@@]34CCCN3C[C@H](F)C4)nc3c(F)c(-c4ccc(F)c5sc(N)c(C#N)c45)nc(c23)OC[C@@H]1C", "note": "(single isomer, unassigned) [Example 82]", "IC50": "< 100"}, {"smiles": "CC(c1cccnc1N)N1c2nc(OC[C@@]34CCCN3C[C@H](F)C4)nc3c(F)c(-c4cccc5ccc(F)c(F)c45)nc(c23)OC[C@@H]1C", "note": "(single isomer, unassigned) [Example 120]", "IC50": "< 100"}, {"smiles": "CC(c1cccnc1N)N1c2nc(OC[C@@]34CCCN3C[C@H](F)C4)nc3c(F)c(-c4ccc(F)c5sc(N)c(C#N)c45)nc(c23)OC[C@@H]1C", "note": "(stereo partly shown) [Example 81]", "IC50": "< 100"}, {"smiles": "C#Cc1c(F)ccc2cc(O)cc(-c3nc4c5c(nc(OC[C@@H](C)OC)nc5c3F)N(C(C)c3cccnc3N)[C@@H](C)CO4)c12", "note": "(single isomer, unassigned) [Example 75]", "IC50": "< 100"}, {"smiles": "C#Cc1c(F)ccc2cc(O)cc(-c3nc4c5c(nc(OC[C@@]67CCCN6C[C@H](F)C7)nc5c3F)N(CC(F)F)C(C)CO4)c12", "note": "(stereo partly shown) [Example 50]", "IC50": "< 100"}, {"smiles": "C#Cc1c(F)ccc2cc(O)cc(-c3nc4c5c(nc(OCC67CCCN6CC(F)C7)nc5c3F)N(C3CC3)C(C)CO4)c12", "note": "(single isomer, unassigned) [Example 45]", "IC50": "< 100"}, {"smiles": "CC(c1cccnc1N)N1c2nc(OC[C@@]34CCCN3C[C@H](F)C4)nc3c(F)c(-c4cccc5ccccc45)nc(c23)OC[C@@H]1C", "note": "(single isomer, unassigned) [Example 59]", "IC50": "< 100"}, {"smiles": "C#Cc1c(F)ccc2cc(O)cc(-c3nc4c5c(nc(OCCCN6CCN(C)CC6)nc5c3F)N(C(C)c3cccnc3N)[C@@H](C)CO4)c12", "note": "(single isomer, unassigned) [Example 170]", "IC50": "< 100"}, {"smiles": "C#Cc1c(F)ccc2cc(O)cc(-c3nc4c5c(nc(OCC(C)(C)OC)nc5c3F)N(C(C)c3cccnc3N)[C@@H](C)CO4)c12", "note": "(single isomer, unassigned) [Example 77]", "IC50": "< 100"}, {"smiles": "CC(c1cccnc1N)N1c2nc(OC[C@@]34CCCN3C[C@H](F)C4)nc3c(F)c(-c4ccccc4C(F)(F)F)nc(c23)OC[C@@H]1C", "note": "(single isomer, unassigned) [Example 61]", "IC50": "< 100"}, {"smiles": "CC(c1cccnc1N)N1c2nc(OC[C@@]34CCCN3C[C@H](F)C4)nc3c(F)c(-c4cc(N)cc(Cl)c4C(F)(F)F)nc(c23)OC[C@@H]1C", "note": "(single isomer, unassigned) [Example 63]", "IC50": "< 100"}, {"smiles": "Cc1cccc(-c2nc3c4c(nc(OC[C@@]56CCCN5C[C@H](F)C6)nc4c2F)N(C(C)c2cccnc2N)[C@@H](C)CO3)c1N(C)C", "note": "(single isomer, unassigned) [Example 128]", "IC50": "< 100"}, {"smiles": "C#Cc1c(F)ccc2cc(O)cc(-c3nc4c5c(nc(OCCCN6CCCCC6)nc5c3F)N(C(C)c3cccnc3N)[C@@H](C)CO4)c12", "note": "(single isomer, unassigned) [Example 142]", "IC50": "< 100"}, {"smiles": "C#Cc1c(F)ccc2cc(O)cc(-c3nc4c5c(nc(OCCCN6CCCC6)nc5c3F)N(C(C)c3cccnc3N)[C@@H](C)CO4)c12", "note": "(single isomer, unassigned) [Example 132]", "IC50": "< 100"}, {"smiles": "C#Cc1c(F)ccc2cc(O)cc(-c3nc4c5c(nc(OCCN6CCN(C)CC6)nc5c3F)N(C(C)c3cccnc3N)[C@@H](C)CO4)c12", "note": "(single isomer, unassigned) [Example 168]", "IC50": "< 100"}, {"smiles": "C#Cc1c(F)ccc2cc(O)cc(-c3nc4c5c(nc(OC[C@@]67CCCN6C[C@H](F)C7)nc5c3F)N(C(C)c3cccnc3N)[C@H](C)CO4)c12", "note": "(stereo partly shown) [Example 41]", "IC50": "< 100"}, {"smiles": "C#Cc1c(F)ccc2cc(O)cc(-c3nc4c5c(ncnc5c3F)N(C(C)c3cccnc3N)[C@@H](C)CO4)c12", "note": "(single isomer, unassigned) [Example 89]", "IC50": "< 100"}, {"smiles": "C#Cc1c(F)ccc2cc(O)cc(-c3nc4c5c(nc(OC[C@@H](C)N6CCC6)nc5c3F)N(C(C)c3cccnc3N)[C@@H](C)CO4)c12", "note": "(single isomer, unassigned) [Example 174]", "IC50": "< 100"}, {"smiles": "Cc1cccc(-c2nc3c4c(nc(OCC56CCCN5CC(F)C6)nc4c2F)N(C(C)c2cccnc2N)C(C)CO3)c1C(F)(F)F", "note": "(single isomer, unassigned) [Example 55]", "IC50": "< 100"}, {"smiles": "C#Cc1c(F)ccc2cc(O)cc(-c3nc4c5c(nc(OC[C@@H]6COCCN6C)nc5c3F)N(C(C)c3cccnc3N)[C@@H](C)CO4)c12", "note": "(single isomer, unassigned) [Example 91]", "IC50": "< 100"}, {"smiles": "C#Cc1c(F)ccc2cc(O)cc(-c3nc4c5c(nc(OC)nc5c3F)N(C(C)c3cccnc3N)[C@@H](C)CO4)c12", "note": "(single isomer, unassigned) [Example 65]", "IC50": "< 100"}, {"smiles": "CC(c1cccnc1N)N1c2nc(OC[C@@H]3CCCN3C)nc3c(F)c(-c4ccc(F)c5sc(N)c(C#N)c45)nc(c23)OC[C@@H]1C", "note": "(single isomer, unassigned) [Example 158]", "IC50": "< 100"}, {"smiles": "C#Cc1c(F)ccc2cc(O)cc(-c3nc4c5c(nc(OCCN6CCCCC6)nc5c3F)N(C(C)c3cccnc3N)[C@@H](C)CO4)c12", "note": "(single isomer, unassigned) [Example 166]", "IC50": "< 100"}, {"smiles": "CC(c1cccnc1N)N1c2nc(OC[C@@]34CCCN3C[C@H](F)C4)nc3c(F)c(-c4ccc(F)c5sc(N)nc45)nc(c23)OC[C@@H]1C", "note": "(single isomer, unassigned) [Example 116]", "IC50": "< 100"}, {"smiles": "CC(c1cccnc1N)N1c2nc(OC[C@@]34CCCN3C[C@H](F)C4)nc3c(F)c(-c4cccc(F)c4N(C)C)nc(c23)OC[C@@H]1C", "note": "(single isomer, unassigned) [Example 126]", "IC50": "< 100"}, {"smiles": "CC(c1cccnc1N)N1c2nc(OC[C@@]34CCCN3C[C@H](F)C4)nc3c(F)c(-c4ccccc4N(C)C)nc(c23)OC[C@@H]1C", "note": "(single isomer, unassigned) [Example 57]", "IC50": "< 100"}, {"smiles": "C#Cc1c(F)ccc2cc(O)cc(-c3nc4c5c(nc(OCC6(N)CC6)nc5c3F)N(C(C)c3cccnc3N)[C@@H](C)CO4)c12", "note": "(single isomer, unassigned) [Example 99]", "IC50": "< 100"}, {"smiles": "C#Cc1c(F)ccc2cc(O)cc(-c3nc4c5c(nc(OCc6nccn6C)nc5c3F)N(C(C)c3cccnc3N)[C@@H](C)CO4)c12", "note": "(single isomer, unassigned) [Example 93]", "IC50": "< 100"}, {"smiles": "C#Cc1c(F)ccc2cc(O)cc(-c3nc4c5c(nc(OC[C@@H](C)N(C)C)nc5c3F)N(C(C)c3cccnc3N)[C@@H](C)CO4)c12", "note": "(single isomer, unassigned) [Example 152]", "IC50": "< 100"}]}]}
